Among the data in PubChem BioAssay (NCI) are TGI values, retold here.

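Step 1: Grow cells in 96-well plates. Step 2: Expose to compound for 48 hours at 5 concentrations. Step 3: Interpolate endpoints linearly; if unreached, use highest concentration. At the TGI there is no net growth.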

Test systems include COLO 205 colon; DU-145 prostate; HCT-15 colon; HOP-92 NSCLC; HT29 colon; KM12 colon; NCI-H23 lung; NCI-H460 lung; PC-3 prostate; SK-MEL-2 melanoma; SK-MEL-28 melanoma; SK-MEL-5 melanoma; T-47D breast; UACC-257 melanoma.
Common to all, as to test: NCI tumour cell line growth inhibition, 48 h

As to `CCCCCCCCCCCCCCCCCCNC(=O)C(N)Cc1ccc(OCc2ccccc2)cn1` (stereo not given), the TGI is 28.8 µM with COLO 205 colon; 43.4 µM in the experiment on DU-145 prostate; 37.3 µM with HCT-15 colon; 41.3 µM in the experiment with HOP-92 NSCLC; 31.2 µM in the experiment on HT29 colon; 35.5 µM in the experiment on KM12 colon. Besides, the TGI with NCI-H23 lung was 31.7 µM; in the experiment on NCI-H460 lung, 29.9 µM; with PC-3 prostate it was 27.7 µM; in the experiment on SK-MEL-2 melanoma, 33.3 µM; in the experiment with SK-MEL-28 melanoma, 50.8 µM; in the experiment on SK-MEL-5 melanoma it was 31.9 µM. Besides, the TGI with T-47D breast was found to be 50.7 µM; in the experiment with UACC-257 melanoma, 43.7 µM.
`[N-]=[N+]=Nc1ccccc1C(=O)N1C(=O)c2ccccc2C(=O)N(C(=O)c2ccccc2N=[N+]=[N-])c2ccccc21`: the TGI in the experiment on COLO 205 colon was greater than 100 µM; in the experiment on DU-145 prostate, greater than 100 µM; with HCT-15 colon, greater than 100 µM; in the experiment on HOP-92 NSCLC it was 83.5 µM; in the experiment on HT29 colon, greater than 100 µM; with KM12 colon it was greater than 100 µM. Further, the TGI with NCI-H23 lung, with NCI-H460 lung, with PC-3 prostate, in the experiment with SK-MEL-2 melanoma, with SK-MEL-28 melanoma and with SK-MEL-5 melanoma was greater than 100 µM each time. Besides, the TGI in the experiment on T-47D breast and with UACC-257 melanoma was greater than 100 µM in each case.
For the compound `C=CCN1C(=O)/C(=C/c2ccco2)N=C1SC/C=C/C`, the TGI in the experiment with COLO 205 colon, in the experiment with DU-145 prostate, with HCT-15 colon, with HOP-92 NSCLC, in the experiment on HT29 colon and in the experiment on KM12 colon was greater than 100 µM in each case. For the same compound, the TGI in the experiment with NCI-H23 lung was greater than 100 µM; in the experiment on NCI-H460 lung, greater than 100 µM; with PC-3 prostate it was greater than 100 µM; in the experiment on SK-MEL-2 melanoma, 86.4 µM; in the experiment on SK-MEL-28 melanoma, greater than 100 µM; in the experiment with SK-MEL-5 melanoma it was 44.3 µM. In addition, the TGI in the experiment on T-47D breast and with UACC-257 melanoma was greater than 100 µM each time.
With `CNc1ncnc2c1ncn2C1C=CC(COS(N)(=O)=O)C1` (stereo not given), the TGI in the experiment on COLO 205 colon, in the experiment with DU-145 prostate, with HCT-15 colon, in the experiment with HOP-92 NSCLC, in the experiment with HT29 colon and with KM12 colon was greater than 100 µM throughout. Moreover, the TGI in the experiment with NCI-H23 lung, with NCI-H460 lung, in the experiment on PC-3 prostate, with SK-MEL-2 melanoma, with SK-MEL-28 melanoma and in the experiment with SK-MEL-5 melanoma was greater than 100 µM in each case. The TGI in the experiment on T-47D breast and in the experiment on UACC-257 melanoma was greater than 100 µM throughout.
In the case of `Cn1c(=O)c(Br)c(C=O)n(CCO[N+](=O)[O-])c1=O`, the TGI is 26.9 µM in the experiment with COLO 205 colon; greater than 100 µM in the experiment with DU-145 prostate; 20 µM in the experiment with HCT-15 colon; 6.85 µM in the experiment with HOP-92 NSCLC; 19.4 µM with NCI-H23 lung; 31.5 µM in the experiment with NCI-H460 lung. The TGI with PC-3 prostate was 23.5 µM; in the experiment with SK-MEL-2 melanoma, 15.8 µM; in the experiment on SK-MEL-28 melanoma, 4.73 µM; with SK-MEL-5 melanoma, 23.9 µM; in the experiment with T-47D breast, 14.6 µM.
With `COCCOC(=O)c1c(C)n([O-])c2cc(Cl)c(Cl)cc2[n+]1=O`, the TGI in the experiment with COLO 205 colon was determined as 25 µM; in the experiment on DU-145 prostate, 25.8 µM; in the experiment with HCT-15 colon, 22.3 µM; in the experiment with HOP-92 NSCLC, 25.3 µM; in the experiment with HT29 colon it was 41.8 µM; in the experiment with KM12 colon, 25.7 µM. For the same compound, the TGI in the experiment on NCI-H23 lung is 79.2 µM; with NCI-H460 lung it was 25.9 µM; in the experiment with PC-3 prostate, greater than 100 µM; in the experiment on SK-MEL-2 melanoma, 72.7 µM; with SK-MEL-28 melanoma it was 61.7 µM; in the experiment on SK-MEL-5 melanoma it was 21.6 µM. In addition, the values for the TGI with T-47D breast and in the experiment on UACC-257 melanoma were 61.2 µM and greater than 100 µM, respectively.
For `C=C(C)C1=CCC[C@]2(C1)N=C(OC)[C@@H](C(C)C)N=C2OC`, the TGI in the experiment on COLO 205 colon, in the experiment on DU-145 prostate, in the experiment with HCT-15 colon, in the experiment with HOP-92 NSCLC, in the experiment with HT29 colon and in the experiment on KM12 colon was greater than 100 µM each time. The TGI in the experiment on NCI-H23 lung, with NCI-H460 lung, in the experiment with PC-3 prostate, in the experiment on SK-MEL-2 melanoma, in the experiment on SK-MEL-28 melanoma and in the experiment with SK-MEL-5 melanoma was greater than 100 µM throughout. Further, the TGI with T-47D breast and in the experiment on UACC-257 melanoma was greater than 100 µM throughout.
For `Cn1c2ccccc2n2c(N=O)c(-c3ccccc3)nc12`, the TGI with COLO 205 colon is 22.6 µM; in the experiment on DU-145 prostate it was greater than 100 µM; with HCT-15 colon it was greater than 100 µM; with HOP-92 NSCLC, greater than 100 µM; in the experiment with HT29 colon it was greater than 100 µM; in the experiment with KM12 colon it was 69.8 µM. Besides, the TGI in the experiment with NCI-H23 lung was greater than 100 µM; in the experiment on NCI-H460 lung, 48.3 µM; in the experiment on PC-3 prostate, greater than 100 µM; in the experiment on SK-MEL-2 melanoma, greater than 100 µM; with SK-MEL-28 melanoma it was greater than 100 µM; in the experiment on SK-MEL-5 melanoma, 34.1 µM. Also, the TGI in the experiment on T-47D breast and with UACC-257 melanoma was greater than 100 µM each time.
With `Cc1csc2[n+]1C(=O)/C(=C\c1ccc([N+](=O)[O-])cc1)S2`, the TGI in the experiment with COLO 205 colon is 39.9 µM; in the experiment on DU-145 prostate it was greater than 100 µM; in the experiment with HOP-92 NSCLC, 47.7 µM; in the experiment with HT29 colon it was 60.2 µM; with KM12 colon, 82.1 µM; in the experiment with NCI-H23 lung it was 48.6 µM. Besides, the TGI in the experiment with NCI-H460 lung was 41.9 µM; with PC-3 prostate, 75.5 µM; with SK-MEL-2 melanoma, 63.3 µM; in the experiment with SK-MEL-28 melanoma it was greater than 100 µM; in the experiment on SK-MEL-5 melanoma, 55 µM; in the experiment with T-47D breast it was 65.5 µM. In addition, the TGI with UACC-257 melanoma is greater than 100 µM.
As to `Clc1ccc(NCc2nnc(CCCCCCCCc3nnc(CNc4ccc(Cl)cc4)o3)o2)cc1`, the TGI with COLO 205 colon, with DU-145 prostate, with HCT-15 colon, in the experiment on HOP-92 NSCLC, in the experiment with HT29 colon and with KM12 colon was greater than 100 µM in each case. Moreover, the TGI in the experiment on NCI-H23 lung, in the experiment on NCI-H460 lung, in the experiment with PC-3 prostate, in the experiment with SK-MEL-2 melanoma, in the experiment with SK-MEL-5 melanoma and in the experiment on T-47D breast was greater than 100 µM each time. In the experiment on UACC-257 melanoma, this compound had a TGI greater than 100 µM.
